The values below come from patent publication US6939963B2, “Method for the preparation of selectively-substituted corroles and new substituted corroles” (Technion Research and Development Foundation Ltd., priority 2001, dated 2005).

Data set [1] in a line: Solubility in water of compound 3 and its metal complexes. Type of data set: physicochemical. An excerpt: (§1) The most variable compounds of the invention are 2 and 3, because of the easy substitution of the chloride in the —SO2Cl functions of 2 and the large variety of metal ions that can be inserted into either 2 or 3. In the present example, metallation of compound 3 is described. Generally, the same methods that were developed for corrole 1 worked for 3 as well: GaCl3/pyridine for obtaining compound 15, the gallium(III) complex of 3; Mn(OAc)2/DMF for obtaining compound 16, the manganese(III) complex of 3; Co(OAc)2/PPh3/EtOH for obtaining compound 17, the (triphenylphosphine)cobalt(III) complex of 3; SnCl2.2H2O/DMF for obtaining compound 18, the (chloro)tin(IV) complex of 3; and CrCl2/pyridine for obtaining compound 19, the (bis-pyridine)chromium(III) complex of 3.

A short description of data set [2]: Aggregation in solution judged from linear plots of UV-vis absorbance (ε determination). The data set is classed as physicochemical. The note with it: low concentrations relevant for UV-vis measurements, 10^−4-10^−6 M.
Excerpt: as §1

SMILES strings stand for the structures.

Consider `O=S(=O)(O)C1=Cc2nc1c(-c1c(F)c(F)c(F)c(F)c1F)c1ccc([nH]1)c(-c1c(F)c(F)c(F)c(F)c1F)c1ccc([nH]1)c(-c1c(F)c(F)c(F)c(F)c1F)c1cc(S(=O)(=O)O)c2[nH]1` [Compound 3, 5,10,15-Tris(pentafluorophenyl)-2,17-bis(sulfonic acid)-corrole], for which the solubility in water result in data set [1] is listed as “soluble in water”. In addition, the “aggregation (linear plots obtained for elucidating the ε values)” value in data set [2] is “absence of aggregation”.
